For orientation: inhibition means the relative decrease from the control value, in per cent. In general, IC50 refers to the concentration that inhibits the measured activity by half.

This note sets out measurements from PubChem BioAssay AID463136 (University of Pittsburgh Molecular Library Screening Center, 2010).

A short description of test [1]: blockers of dynein-driven microtubule transport – imaging, high-content imaging, dose response (AID 463136).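 Also: mouse mammary adenocarcinoma 3617.4 cells expressing GFP-tagged rat glucocorticoid receptor.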 As to conditions: HCS imaging, dynein-mediated cargo transport inhibition; inhibition at max concentration; at 50 µM; stronger effect = higher value.
The subject of test [2] is HCS imaging, dynein-mediated cargo transport inhibition. The description is as above.

The structures appear in SMILES notation. Inconclusive results are not listed. Calls of active or inactive are those of the source. No rule for the calls is given here.

Take `Nc1cccc2c1C(=O)N(C(=O)/C=C/c1cccc(F)c1)C2=O`: the inhibition in test [1] was 14.3%. For the same compound, the IC50 in test [2] is > 50 µM (inactive).
In the case of `COc1ccc(N(C(=O)CCl)C(C(=O)NC2CCCCC2)c2cccnc2)cc1` (stereo not given), in test [1], the inhibition was 85.5%. Moreover, the concentration for half-maximal inhibition (IC50) in test [2] is 13.3 µM.
In the case of `O=C(NCc1cccnc1)/C(=C/c1ccc(-c2ccc(Cl)cc2)o1)S(=O)(=O)c1ccccc1`, the inhibition in test [1] worked out at 59.1%. The IC50 in test [2] was 34.3 µM.
For the compound `COCCCn1c(O)c(/C=C2\N=C(C#N)C(=Nc3ccc(C)cc3)O2)sc1=S`, the inhibition in test [1] was found to be 11%. Moreover, the IC50 in test [2] is > 50 µM (inactive).
As to `CC(C)(C)C(=O)Cn1ncc(Cl)c(Cl)c1=O`, in test [1], the inhibition turned out to be 90.6%. The IC50 in test [2] is 7.93 µM.
Consider `Cc1cc(C)c2c(=O)n(CC(=O)NCCCN3CCN(c4ccccc4F)CC3)sc2n1`, for which the inhibition in test [1] stood at 96.3%. The IC50 in test [2] was 14 µM.
For the compound `O=c1c(Cl)c(Cl)cnn1-c1ccccc1`, the inhibition in test [1] was 81.7%. Also, the IC50 in test [2] was 9.57 µM.
On to `COc1ccccc1N1C(=O)CC(Sc2n[nH]c(-c3cccc(C)c3)n2)C1=O` (stereo not given), for which the inhibition in test [1] was found to be 5.74%. For the same compound, the IC50 in test [2] is > 50 µM (inactive).
`Cc1[nH]c2ccccc2c1/C=N/Nc1ccc([N+](=O)[O-])cc1`: in test [1], the inhibition worked out at 132%. Moreover, in test [2], the concentration for half-maximal inhibition (IC50) is 24.8 µM.
The like results for `COC1=C(C)C(O)=C(C(=O)/C=C/c2ccccc2)C(=O)C1(C)C` were, in that order, 88.2% and 12.2 µM.
`Nc1nc(Sc2c([N+](=O)[O-])cc(C(F)(F)F)cc2[N+](=O)[O-])n[nH]1`: the inhibition in test [1] stood at 44.1%. In addition, the half-inhibitory concentration (IC50) in test [2] was 21.9 µM.
Consider `CCCCNc1ccc2c3c(cccc13)C(=O)N(CCCC)C2=O`, for which the inhibition in test [1] came to 13.5%. The IC50 in test [2] is > 50 µM (inactive).
For `CCCn1nc(-c2ccccc2)c2nc3ccccc3nc21`, in that order: -0.033% and > 50 µM (inactive).
Turning to `Cc1ccc(/C=C2/C(=O)ON=C2c2ccccc2)o1`, the inhibition in test [1] came out at 15.6%. In addition, the IC50 in test [2] is > 50 µM (inactive).
Take `CCn1c(=O)c([N+](=O)[O-])c(Cl)c2ccccc21`: in test [1], the inhibition stood at 83.9%. In test [2], the concentration for half-maximal inhibition (IC50) is 30.3 µM.
Regarding `O=C(/C=C/c1ccncc1)c1ccc2c(c1)OCCO2`, the inhibition in test [1] worked out at 72.4%. In addition, in test [2], the IC50 was 17.1 µM.
As to `Nc1c(C(=O)N/N=C/c2ccc(F)cc2)oc2nc(-c3ccccc3)cc(-c3ccco3)c12`, the inhibition in test [1] is 40.9%. Moreover, the IC50 in test [2] is > 50 µM (inactive).
Take `Clc1ccc(-c2nnc(Sc3nc4ccccc4o3)c3ccccc23)cc1`: the inhibition in test [1] came to 83%. The IC50 in test [2] is 39.3 µM.
For `Cn1ncc(S(=O)(=O)Cc2ccccc2)c(Cl)c1=O`, in test [1], the inhibition stood at 10.6%. The IC50 in test [2] was > 50 µM (inactive).
Turning to `O=C(O)c1ccc(NC2=C(Cl)C(=O)c3ccccc3C2=O)cc1`, the inhibition in test [1] came to 71.1%. Moreover, the half-inhibitory concentration (IC50) in test [2] is 15.2 µM.
For `COc1ccc(C(=O)Cn2c(C)nc([N+](=O)[O-])c2Br)cc1`, in test [1], the inhibition was 86.4%. Also, in test [2], the concentration for half-maximal inhibition (IC50) was 3.56 µM.
For `COC(=O)c1cc(=O)n(CCc2ccc(OC)cc2)c(=Nc2ccc(F)c(Cl)c2)s1`, in that order: 13.5% and > 50 µM (inactive).
On to `COc1ccccc1NS(=O)(=O)c1cc([N+](=O)[O-])ccc1N/N=C/c1c[nH]c2ccccc12`, for which the inhibition in test [1] was found to be 21.9%. Also, in test [2], the IC50 is > 50 µM (inactive).
`CCOC(=O)C(=Cc1cc(=O)c(OC)co1)C(=O)OCC`: in test [1], the inhibition came out at 87.9%. Further, in test [2], the IC50 was 6.45 µM.
`Cc1ccc(/C=C2\CCC3=C2OC(N)=C(C#N)C3c2ccc(C)cc2)cc1` (stereo not given): the inhibition in test [1] amounted to 111%. Also, the IC50 in test [2] was 3.23 µM.
As for `O=C(CCl)N(c1ccccc1)c1ccccc1`, the inhibition in test [1] was found to be 61.3%. Also, the IC50 in test [2] is 14.2 µM.
With `O=C(OCn1ncc(Br)c(Br)c1=O)c1ccc(F)cc1`, the inhibition in test [1] is 55%. For the same compound, the half-inhibitory concentration (IC50) in test [2] is 7.52 µM.
For `CC(C)(C)C(=O)/C=c1\s/c(=C\c2ccc(-c3ccc([N+](=O)[O-])cc3)o2)c(=O)n1CC(=O)NC(N)=O`, in test [1], the inhibition came out at 98.8%. Besides, the 50% inhibitory concentration (IC50) in test [2] was 0.825 µM.
Regarding `N#C/C(=C/c1ccc(N2CCCCC2)o1)C(=O)Nc1ccc2ccccc2c1`, the inhibition in test [1] came to 98.5%. Moreover, the IC50 in test [2] is 27.4 µM.
On to `CN(C)CCCN(C(=O)CCOc1ccccc1)c1nc2c(F)cccc2s1`, for which the inhibition in test [1] was found to be 30.5%. Besides, in test [2], the IC50 was > 50 µM (inactive).
For `COc1cc(C2Oc3ccccc3C=C2[N+](=O)[O-])cc(OC)c1OC` (stereo not given), in that order: 63.7% and 25.5 µM.
Regarding `CCOC(=O)CC1C(=O)NCCN1c1nc2ccc(C)cn2c(=O)c1/C=C1\SC(=S)N(CC(C)C)C1=O` (stereo not given), the inhibition in test [1] was found to be 71.8%. In addition, the IC50 in test [2] is 44.9 µM.
On to `Nc1c(C(=O)C2CC2)sc2nc(-c3ccccc3)cc(C(F)(F)F)c12`, for which the inhibition in test [1] worked out at 134%. The IC50 in test [2] was 31.2 µM.
For `Cc1ccc(SC(=O)c2c([N+](=O)[O-])c(C)nn2C)cc1`, in that order: 6.09% and > 50 µM (inactive).
`CCN(CC)c1ccc2cc(-c3nc(-c4ccc(OC)cc4)cs3)c(=O)oc2c1`: the inhibition in test [1] was found to be 98.4%. Moreover, in test [2], the IC50 is 25.7 µM.
`Nc1c(C(=O)C2CC2)sc2nc(-c3cccs3)cc(C(F)(F)F)c12`: the inhibition in test [1] came out at 66.4%. The IC50 in test [2] is 38.7 µM.
Regarding `CCc1ccc(N2C(=O)NC(=O)/C(=C\C=C\c3ccco3)C2=O)cc1`, the inhibition in test [1] came to 165%. Besides, in test [2], the IC50 is 27.5 µM.
For the compound `COc1cccc(C2CC3C(=O)C=CC2N3Cc2ccccc2)c1` (stereo not given), the inhibition in test [1] stood at 90%. In addition, the IC50 in test [2] is 13.3 µM.
Consider `Cc1ccc(C2=NOC(=O)/C2=C\C=C\c2ccccc2)cc1`, for which, in test [1], the inhibition worked out at 71%. Further, in test [2], the IC50 is 36.6 µM.
The like results for `N#C/C(=C/c1ccc(N2CCCCC2)o1)C(=O)NCCc1c[nH]c2ccccc12` were, in that order, 98.8% and 31.8 µM.
The like results for `CCN(CC)c1ccc(/C=C/C(=O)c2ccc(Br)cc2)cc1` were, in that order, 7.65% and > 50 µM (inactive).
For `O=C(CCl)Nc1cc(SCC(O)CO)cc([N+](=O)[O-])c1` (stereo not given), in that order: 88% and 10.5 µM.
In the case of `Cc1cc(C(=O)Cn2ncc(Cl)c(Cl)c2=O)c(C)n1CC(F)(F)F`, the inhibition in test [1] was 78.6%. Moreover, in test [2], the IC50 was 7.79 µM.
For the compound `CCN(CC)c1ccc(/C=C2/SC(=O)N(C(C)C)C2=O)o1`, in test [1], the inhibition was 39.9%. The IC50 in test [2] is > 50 µM (inactive).
For the compound `CCCNC(=O)c1nnsc1S(=O)(=O)c1ccc(Cl)cc1`, the inhibition in test [1] was found to be 69.3%. Besides, the IC50 in test [2] was 8.66 µM.
As for `C=CCSc1nnc(C)c(/C=C/Nc2ccc(Cl)cc2)n1`, the inhibition in test [1] is 125%. Moreover, the 50% inhibitory concentration (IC50) in test [2] is 27.7 µM.
Take `O=c1c2ccccc2sn1-c1ccccc1`: the inhibition in test [1] is 90.4%. Moreover, in test [2], the 50% inhibitory concentration (IC50) was 12.7 µM.
The like results for `O=C1C(Cl)=C(NCCN2CCCCC2)C(=O)c2ccccc21` were, in that order, 63.5% and 31.8 µM.
As for `Nc1cccc2c1C(=O)N(C(=O)/C=C/c1ccc(F)cc1)C2=O`, the inhibition in test [1] was found to be 37.6%. The IC50 in test [2] is > 50 µM (inactive).
As to `O=C(c1ccc(F)cc1)C(CN1CCOCC1)c1ccccc1` (stereo not given), in test [1], the inhibition was found to be 85.7%. In test [2], the half-maximal inhibitory concentration (IC50) was 7.15 µM.
As for `Cc1ccc(NC(=O)CCl)cc1S(=O)(=O)N1CCCCCC1`, the inhibition in test [1] turned out to be 88.6%. In test [2], the IC50 is 10.6 µM.
With `O=C(CCl)N(Cc1ccccc1)c1ccccc1`, the inhibition in test [1] amounted to 69.4%. Further, the IC50 in test [2] was 10 µM.
Take `Cc1c(C#N)c(NC(=O)CCl)n(Cc2cccs2)c1C`: in test [1], the inhibition was 69.2%. For the same compound, the IC50 in test [2] is 24.7 µM.
The like results for `Cc1ccc(C(=O)NC(C#N)=C(Cl)Cl)cc1` were, in that order, 82.3% and 6.71 µM.
On to `COC(=O)c1cc(=O)n(Cc2ccc3c(c2)OCO3)c(=Nc2ccc(F)c(Cl)c2)s1`, for which the inhibition in test [1] was found to be 8.81%. The IC50 in test [2] was > 50 µM (inactive).
